In patent publication US20210283261A1, “Compositions and Methods for Treating ALK-Mediated Cancer” (ICAHN SCHOOL OF MEDICINE AT MOUNT SINAI, priority 2017, published 2021):

Columns and labels:
Format in all cases: cell-based
ALK = assay: Characterization of ALK degraders in ALCL and NSCLC cells (summary); conditions: summary statement
Excerpt: Specific exemplary ALK degraders/disruptors were characterized in various different anaplastic large cell lymphoma (ALCL) cells and non-small cell lung cancer (NSCLC) cells (Examples 4-19, FIGS. 1-18). […] This efficacy in suppressing ALK expression and ALK activity correlated with efficacy in inhibiting cancer cell proliferation.

NPM-ALK fusion protein = target: T1, NPM-ALK fusion protein (Homo sapiens, UniProt Q9UM73); assay: Western blot of NPM-ALK fusion protein levels in SU-DHL-1 cells; conditions: for effect on ALK fusion protein levels, concentration dependence: SU-DHL-1 cells, 0, 10, 20, 40, 80 and 160 nM; for effect on ALK fusion protein levels, concentration dependence / significantly reduced ALK fusion protein levels (degraders vs negative controls): 16 h; for rescue of induced ALK fusion protein degradation by MG-132 and MLN4924 / significantly reduced ALK fusion protein levels (degraders vs negative controls): SU-DHL-1 cells; for rescue of induced ALK fusion protein degradation by MG-132 and MLN4924: 2 h pre-treatment, then 100 nM compound for 6 h
T1 construct: endogenous in cells; host or cells: SU-DHL-1; the other entry of the earlier key: NPM1 (P06748, Nucleophosmin)
T1 sequence (Q9UM73 with tags, fused parts or gaps): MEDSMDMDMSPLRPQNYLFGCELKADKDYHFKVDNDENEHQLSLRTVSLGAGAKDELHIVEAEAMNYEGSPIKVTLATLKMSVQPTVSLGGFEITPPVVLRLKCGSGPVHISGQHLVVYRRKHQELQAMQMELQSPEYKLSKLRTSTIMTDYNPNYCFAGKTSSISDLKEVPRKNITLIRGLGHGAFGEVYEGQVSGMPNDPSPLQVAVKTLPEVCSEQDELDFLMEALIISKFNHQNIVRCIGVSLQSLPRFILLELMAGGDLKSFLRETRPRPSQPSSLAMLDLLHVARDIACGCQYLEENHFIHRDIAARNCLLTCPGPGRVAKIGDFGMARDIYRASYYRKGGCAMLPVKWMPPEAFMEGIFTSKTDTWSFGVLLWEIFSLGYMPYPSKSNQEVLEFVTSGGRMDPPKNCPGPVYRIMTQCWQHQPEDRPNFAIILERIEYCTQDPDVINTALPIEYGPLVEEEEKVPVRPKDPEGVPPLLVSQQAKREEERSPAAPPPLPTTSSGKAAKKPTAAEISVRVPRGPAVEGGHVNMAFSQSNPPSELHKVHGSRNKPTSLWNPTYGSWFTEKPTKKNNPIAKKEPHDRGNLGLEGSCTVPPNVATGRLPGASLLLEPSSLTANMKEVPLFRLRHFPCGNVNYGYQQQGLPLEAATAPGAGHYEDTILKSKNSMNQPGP
Protocol: Cells were cultured in a 37° C. incubator with 5% CO2.
Cells were washed with cold PBS once and lysed in 1× Laemmli loading buffer directly. […] Membrane was blocked in 5% milk in Tris-buffered saline and Tween 20 (TBST) for 1 h at room temperature, followed by incubation with a primary antibody overnight at 4° C., and a horseradish peroxidase (HRP)-conjugated secondary antibody for 1 h at room temperature. The membrane was imaged by a ChemiDoc MP imaging system (BIO-RAD). Antibodies against GAPDH (abeam), Phospho-ALK (Tyr1507), ALK (Cell Signaling Technology), Tubulin (Santa Cruz) were purchased commercially.
SU-DHL-1 suspension cells were seeded in 12-well plates at a density of 6×10^5/mL and treated with DMSO or indicated compounds at 30 nM or 100 nM for indicated time.
SU-DHL-1 cells were seeded in 12-well plates at a density of 4×10^5/mL and treated with DMSO or indicated serial dilutions of compounds for 16 h. The NPM-ALK fusion protein levels were determined by Western blot and normalized against GPADH (right panel).

NCI-H3122 cells = assay: Cell viability assay in NCI-H3122 cells; conditions: 3 days
Protocol: SU-DHL-1, NCI-H3122 and NCI-H2228 cells were cultured in RPMI-1640 medium supplemented with 10% fetal bovine serum, 50 μg/mL penicillin and streptomycin. Cells were cultured in a 37° C. incubator with 5% CO2.
(§1) SU-DHL-1 and NCI-3122 cells were treated with DMSO or indicated serial dilutions of compounds for 3 days. Data were analyzed using the GraphPad Prism.

ALK fusion protein = target: T2, ALK fusion protein (Homo sapiens, UniProt Q9UM73); assay: Western blot of ALK fusion protein levels in NCI-H3122 cells; conditions: for effect on ALK fusion protein levels, concentration dependence: NCI-H3122 cells, 0, 50, 100, 200, 400 and 800 nM; for effect on ALK fusion protein levels, concentration dependence / significantly reduced ALK fusion protein levels (degraders vs negative controls): 16 h; for Dmax at 0.5 µM: NCI-H3122, NCI-H3122 cells, read-out: ALK fusion protein degradation, NCI-H3122 (500 nM)
T2 construct: endogenous in cells; host or cells: NCI-H3122; the other entry of the earlier key: EML4 (Q9HC35, Echinoderm microtubule-associated protein-like 4)
T2 sequence (Q9UM73 with tags, fused parts or gaps): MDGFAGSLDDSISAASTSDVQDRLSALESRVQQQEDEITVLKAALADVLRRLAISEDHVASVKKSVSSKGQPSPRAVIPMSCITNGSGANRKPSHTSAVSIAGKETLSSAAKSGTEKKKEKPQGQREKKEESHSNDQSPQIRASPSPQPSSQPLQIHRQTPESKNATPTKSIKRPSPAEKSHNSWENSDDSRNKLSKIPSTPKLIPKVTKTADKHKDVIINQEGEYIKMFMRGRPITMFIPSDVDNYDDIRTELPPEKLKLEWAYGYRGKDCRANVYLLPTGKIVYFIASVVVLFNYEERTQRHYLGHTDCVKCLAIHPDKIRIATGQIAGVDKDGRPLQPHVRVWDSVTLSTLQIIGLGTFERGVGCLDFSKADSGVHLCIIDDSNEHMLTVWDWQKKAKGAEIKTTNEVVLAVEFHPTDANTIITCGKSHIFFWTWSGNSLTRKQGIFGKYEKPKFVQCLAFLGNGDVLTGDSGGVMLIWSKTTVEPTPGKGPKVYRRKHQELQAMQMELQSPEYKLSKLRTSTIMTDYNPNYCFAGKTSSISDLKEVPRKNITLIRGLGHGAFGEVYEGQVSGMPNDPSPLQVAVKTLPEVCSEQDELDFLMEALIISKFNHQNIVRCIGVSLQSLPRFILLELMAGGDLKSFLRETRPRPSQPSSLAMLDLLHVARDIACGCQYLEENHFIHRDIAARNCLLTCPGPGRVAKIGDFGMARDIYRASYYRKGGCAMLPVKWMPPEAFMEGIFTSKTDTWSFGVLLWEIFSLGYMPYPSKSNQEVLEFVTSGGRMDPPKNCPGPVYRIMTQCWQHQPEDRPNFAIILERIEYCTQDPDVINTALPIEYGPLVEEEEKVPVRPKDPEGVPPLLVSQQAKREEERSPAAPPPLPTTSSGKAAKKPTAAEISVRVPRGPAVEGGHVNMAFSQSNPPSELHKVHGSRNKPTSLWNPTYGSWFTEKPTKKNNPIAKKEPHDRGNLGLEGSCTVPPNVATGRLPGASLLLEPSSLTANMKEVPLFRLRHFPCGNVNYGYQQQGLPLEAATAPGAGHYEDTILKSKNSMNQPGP

SU-DHL-1 cells = assay: Cell viability assay in SU-DHL-1 cells; conditions: 3 days
Protocol: (§2) SU-DHL-1 cells were seeded in 96-well plates at a density of 1×10^4 cells per well, in triplicate. Treated cells with DMSO or indicated serial dilutions of compounds for 2.5 days. Cell growth/survival was measured by using the CellTiter-Glo luminescent cell viability assay following the manufacturer's instructions (Promega) or CCK8 cell viability assay (Sigma). Data was analyzed by using the GraphPad Prism software, Error bars represent ±SD for triplicate experiments.
as §2, with “assay.” for “assay following the manufacturer's instructions (Promega) or CCK8 cell viability assay (Sigma).”, “experiments (left panel).” for “experiments.”
SU-DHL-1 cells were seeded in 96-well plates at a density of 5000 cells per well, in triplicate. The cells were treated with DMSO or indicated serial dilutions of compounds for 3 days. Cell growth was measured using the CellTiter-Glo luminescent cell viability assay. Data were analyzed using the GraphPad Prism.
as §1

| effect on ALK fusion protein levels, concentration dependence (NPM-ALK fusion protein) | rescue of induced ALK fusion protein degradation by MG-132 and MLN4924 (NPM-ALK fusion protein) | significantly reduced ALK fusion protein levels (degraders vs negative controls) (NPM-ALK fusion protein) | effect on ALK fusion protein levels, concentration dependence (ALK fusion protein) | ALK fusion protein degradation, NCI-H3122 (500 nM) (ALK fusion protein; NCI-H3122 cells, 500 nM, Western blot) | significantly reduced ALK fusion protein levels (degraders vs negative controls) (ALK fusion protein; NCI-H3122 cells) | Dmax at 0.5 µM (ALK fusion protein; 500 nM, Western blot) | Compound | suppressing both ALK expression and ALK activity (ALK) | inhibition of cell viability (NCI-H3122 cells) | inhibition of cell viability (SU-DHL-1 cells) |
| --- | --- | --- | --- | --- | --- | --- | --- | --- | --- | --- |
| concentration-dependently reduced | significantly rescued | significantly reduced | concentration-dependently reduced | ++ (Protein degradation >80%) | significantly reduced |  | Cc1cc(Nc2ncc(Cl)c(Nc3ccccc3S(=O)(=O)C(C)C)n2)c(OC(C)C)cc1C1CCN(C(=O)COCCOCC(=O)N[C@H](C(=O)N2C[C@H](O)C[C@H]2C(=O)NCc2ccc(-c3scnc3C)cc2)C(C)(C)C)CC1 [CZ47-15, (2S,4R)-1-((S)-2-(2-(2-(2-(4-(4-((5-Chloro-4-((2-(isopropylsulfonyl)phenyl)amino)pyrimidin-2-yl)amino)-5-isopropoxy-2-methylphenyl)piperidin-1-yl)-2-oxoethoxy)ethoxy)acetamido)-3,3-dimethylbutanoyl)-4-hydroxy-N-(4-(4-methylthiazol-5-yl)benzyl)pyrrolidine-2-carboxamide] | especially effective | significantly inhibited | significantly inhibited |
| concentration-dependently reduced | significantly rescued | significantly reduced | concentration-dependently reduced |  | significantly reduced | > 80% | Cc1cc(Nc2ncc(Cl)c(Nc3ccccc3S(=O)(=O)C(C)C)n2)c(OC(C)C)cc1C1CCN(C(=O)CCCCC(=O)N[C@H](C(=O)N2C[C@H](O)C[C@H]2C(=O)NCc2ccc(-c3scnc3C)cc2)C(C)(C)C)CC1 [CZ47-24, (2S,4R)-1-((S)-2-(6-(4-(4-((5-Chloro-4-((2-(isopropylsulfonyl)phenyl)amino)pyrimidin-2-yl)amino)-5-isopropoxy-2-methylphenyl)piperidin-1-yl)-6-oxohexanamido)-3,3-dimethylbutanoyl)-4-hydroxy-N-(4-(4-methylthiazol-5-yl)benzyl)pyrrolidine-2-carboxamide] | especially effective | significantly inhibited | significantly inhibited |
| concentration-dependently reduced |  |  | concentration-dependently reduced |  |  | > 80% | Cc1cc(Nc2ncc(Cl)c(Nc3ccccc3S(=O)(=O)C(C)C)n2)c(OC(C)C)cc1C1CCN(C(=O)COCCOCC(=O)N[C@H](C(=O)N2C[C@H](O)C[C@H]2C(=O)N[C@@H](C)c2ccc(-c3scnc3C)cc2)C(C)(C)C)CC1 [HC58-98, (2S,4R)-1-((S)-2-(2-(2-(2-(4-(4-((5-Chloro-4-((2-(isopropylsulfonyl)phenyl)amino)pyrimidin-2-yl)amino)-5-isopropoxy-2-methylphenyl)piperidin-1-yl)-2-oxoethoxy)ethoxy)acetamido)-3,3-dimethylbutanoyl)-4-hydroxy-N—((S)-1-(4-(4-methylthiazol-5-yl)phenyl)ethyl)pyrrolidine-2-carboxamide] | especially effective | significantly inhibited | significantly inhibited |
| concentration-dependently reduced |  |  | concentration-dependently reduced |  |  | > 80% | Cc1cc(Nc2ncc(Cl)c(Nc3ccccc3S(=O)(=O)C(C)C)n2)c(OC(C)C)cc1C1CCN(C(=O)CCCC(=O)N[C@H](C(=O)N2C[C@H](O)C[C@H]2C(=O)N[C@@H](C)c2ccc(-c3scnc3C)cc2)C(C)(C)C)CC1 [HC58-99, (2S,4R)-1-((S)-2-(5-(4-(4-((5-Chloro-4-((2-(isopropylsulfonyl)phenyl)amino)pyrimidin-2-yl)amino)-5-isopropoxy-2-methylphenyl)piperidin-1-yl)-5-oxopentanamido)-3,3-dimethylbutanoyl)-4-hydroxy-N—((S)-1-(4-(4-methylthiazol-5-yl)phenyl)ethyl)pyrrolidine-2-carboxamide] | especially effective | significantly inhibited | significantly inhibited |
| concentration-dependently reduced |  |  | concentration-dependently reduced |  |  | > 80% | Cc1cc(Nc2ncc(Cl)c(Nc3ccccc3S(=O)(=O)C(C)C)n2)c(OC(C)C)cc1C1CCN(C(=O)CCCCC(=O)N[C@H](C(=O)N2C[C@H](O)C[C@H]2C(=O)N[C@@H](C)c2ccc(-c3scnc3C)cc2)C(C)(C)C)CC1 [HC58-100] | especially effective | significantly inhibited | significantly inhibited |

| Compound | effect on ALK fusion protein levels, concentration dependence (NPM-ALK fusion protein) | rescue of induced ALK fusion protein degradation by MG-132 and MLN4924 (NPM-ALK fusion protein) | significantly reduced ALK fusion protein levels (degraders vs negative controls) (NPM-ALK fusion protein) | effect on ALK fusion protein levels, concentration dependence (ALK fusion protein) | ALK fusion protein degradation, NCI-H3122 (500 nM) (ALK fusion protein; NCI-H3122 cells, 500 nM, Western blot) | significantly reduced ALK fusion protein levels (degraders vs negative controls) (ALK fusion protein; NCI-H3122 cells) | Dmax at 0.5 µM (ALK fusion protein; 500 nM, Western blot) | suppressing both ALK expression and ALK activity (ALK) | inhibition of cell viability (NCI-H3122 cells) | inhibition of cell viability (SU-DHL-1 cells) |
| --- | --- | --- | --- | --- | --- | --- | --- | --- | --- | --- |
| Cc1cc(Nc2ncc(Cl)c(Nc3ccccc3S(=O)(=O)C(C)C)n2)c(OC(C)C)cc1C1CCN(C(=O)CCCC(=O)N[C@H](C(=O)N2C[C@H](O)C[C@H]2C(=O)NCc2ccc(-c3scnc3C)cc2)C(C)(C)C)CC1 [CZ47-23, (2S,4R)-1-((S)-2-(5-(4-(4-((5-Chloro-4-((2-(isopropylsulfonyl)phenyl)amino)pyrimidin-2-yl)amino)-5-isopropoxy-2-methylphenyl)piperidin-1-yl)-5-oxopentanamido)-3,3-dimethylbutanoyl)-4-hydroxy-N-(4-(4-methylthiazol-5-yl)benzyl)pyrrolidine-2-carboxamide] | concentration-dependently reduced | significantly rescued | significantly reduced | concentration-dependently reduced |  | significantly reduced | > 80% | especially effective | significantly inhibited | significantly inhibited |
